Assay results from US12516346B2, “Intelligent genetic breeding and seed production system for crop cross breeding and hybrid seed production, and application thereof” (Hainan Bolian Technology Co., Ltd., priority 2020, dated 2026).

How the values were obtained:
Format in all cases: in vivo, rice
[1] = tested on: GAT T0 generation transformants and wild-type control ZH11 seedlings; experiment: Bispyribac-sodium resistance phenotype, spraying of T0 seedlings
Method: In order to test the working efficiency of screening marker elements in the GAT system, a 600 mg/L bispyribac-sodium solution was prepared with 10% bispyribac-sodium (Nominee, Japan), and 563 GATT0 generation obtained in example 2 and wild-type control ZH11 3 to 5 leaf stage seedlings were sprayed. After spraying, continuous observation was carried out.

[2] = tested on: seeds of GAT strains, hybrids with sterile line 1907, ZH11, 9311, MH63; experiment: Detection of the escape rate of GAT pollen: seed screening on BS medium; conditions: 21 days; for Survival number / Survival rate: 1/2MS + 3uM BS
Source text: To further detect whether its pollen escapes, in this example, the rice material of common sterile line was pollinated through the strains of the excellent initial maintainer line of GAT, and it was checked whether the hybrid seed has the resistance to bispyribac-sodium (the method is the same as that in Example 5). […] GAT strains (23-2, 88-4) were selected as male parents to pollinate female sterile line 1907, and 221 and 373 hybrid seeds were obtained respectively.

[3] = tested on: seeds of GAT key strains and ZH11; experiment: Tissue culture germination screening on bispyribac-sodium (BS) medium; conditions: 1/2MS + 3 μm bispyribac-sodium
Method: In order to identify the working efficiency of screening marker elements in the GAT T1 generation, tissue culture germination was used to screen the T1 generation of key strains and candidate strains.
Therefore, ½MS medium+3 μm bispyribac-sodium was prepared for screening the key strains and the candidate strains of GAT, and the germination results were shown in Table 2.

[4] = tested on: GAT T0 generation transformants and wild-type control ZH11; experiment: Bentazon sensitive phenotype, spraying of scribed leaf area, T0 generation
Method: In order to test the working efficiency of herbicide sensitive elements in the GAT system, after the identification of bispyribac-sodium resistance phenotype, a 3 g/L bentazone solution was prepared with 48% bentazone mother liquor (Changzhou Precision Biotechnology Co., Ltd.). The scribed area of plant leaves of surviving GAT T0 generation (347 strains) in the last spraying experiment with bispyribac-sodium and the wild-type control ZH11 were sprayed with the resultant solution, and were continuously observed after spraying. Some GAT transformants T0 had curly and yellow leaf tips on the third day after spraying. […] Meanwhile, 86 strains were highly resistant to bispyribac-sodium and highly sensitive to bentazone. Based on the similar analysis of the transformation events of the above bispyribac-sodium resistance strains, it can be seen that this experiment confirmed that the working efficiency of herbicide sensitive elements in the GAT system is high, and the created GAT seed breeding system can quickly and accurately identify the corresponding phenotype thereof.

[5] = tested on: T1 generation seedlings of GAT key plants, ZH11, CK+ (P450i2-30); experiment: Bentazone spraying of T1 generation seedlings; conditions: 3 g/L bentazone
Method: In order to identify the working efficiency of herbicide sensitive elements in the T1 generation of the GAT transformants, a 3 g/L bentazone solution was prepared with 48% bentazone mother liquor (Changzhou Precision Biotechnology Co., Ltd.). Some plants in the positive strains screened by bispyribac-sodium in Example 5-1 were sprayed, and continuously observed after spraying. […] See Table 3 and FIG. 22 for specific results.
ZH11 is Resistance Control, CK+(P450i2-30) is the Sensitive Positive Control

[6] = 563 GAT T0 transformants, 600 mg/L spray, 14th day
[7] = hybrid 1907 × 23-2(T1), total number 211
[8] = hybrid 1907×88-4(T1), total number 363
[9] = strain 23-2(T2), total number 200
[10] = strain 88-4(T2), total number 200
[11] = 347 GAT T0 strains, 3 g/L bentazone
[12] = strain 11-1 T1, 8 plants sprayed
[13] = strain 23-2 T1, 12 plants sprayed
[14] = strain 23 T1, 14 plants sprayed
[15] = strain 53-3 T1, 8 plants sprayed
[16] = strain 77-2 T1, 2 plants sprayed
[17] = strain 88-4 T1, 13 plants sprayed
[18] = strain 93-2 T1, 9 plants sprayed
[19] = strain 95-2 T1, 2 plants sprayed
[20] = strain 174-3 T1, 10 plants sprayed
[21] = strain 175-4 T1, 7 plants sprayed
[22] = strain CK + (P450i2-30) (sensitive positive control), 4 plants sprayed
[23] = strain ZH11 (resistance control), 4 plants sprayed

SMILES: COc1cc(OC)nc(Oc2cccc(Oc3nc(OC)cc(OC)n3)c2C(=O)O)n1 [bispyribac-sodium]
- number of growth inhibited strains (mediumly resistant) [1, 6]: 163 strains
- number of irreversible death or near-death strains (non-resistant or low resistant) [1, 6]: 216 strains
- number of normal growth strains (highly resistant) [1, 6]: 184 strains
- probability of GAT transformants showing normal growth, highly resistant ([1]; GAT T0 transformants, 600 mg/L spray): 32.68%
- appearance of leaves after spraying ([1]; control ZH11, 600 mg/L bispyribac-sodium spray, 3 to 5 leaf stage, third day): withered and yellow
- appearance after spraying ([1]; control ZH11, 600 mg/L bispyribac-sodium spray, 14th day): completely died
- appearance after spraying ([1]; control ZH11, 600 mg/L bispyribac-sodium spray, seventh day): withered and yellow and was dying
- Survival number [2, 7]: 0
- Survival rate [2, 7]: 0.00%
- Survival number [2, 8]: 0
- Survival rate [2, 8]: 0.00%
- germination rate ([2]; hybrid seeds 1907 x GAT strains 23-2, 88-4, 1/2MS+3 uM BS): 0%
- Survival number [2, 9]: 95
- Survival rate [2, 9]: 47.50%
- Survival number [2, 10]: 83
- Survival rate [2, 10]: 41.50%
- Survival number ([2]; strain 9311, total number 200): 0
- Survival rate ([2]; strain 9311, total number 200): 0.00%
- Survival number ([2]; strain MH63, total number 200): 0
- Survival rate ([2]; strain MH63, total number 200): 0.00%
- Survival number ([2]; strain ZH11, total number 200): 0
- Survival rate ([2]; strain ZH11, total number 200): 0.00%
- Germination ([3]; strain 4, 45 seeds): 24
- Non-germination ([3]; strain 4, 45 seeds): 21
- Germination ([3]; strain 7, 29 seeds): 11
- Non-germination ([3]; strain 7, 29 seeds): 18
- Germination ([3]; strain 11-1, 58 seeds): 26
- Non-germination ([3]; strain 11-1, 58 seeds): 32
- Germination ([3]; strain 20, 40 seeds): 10
- Non-germination ([3]; strain 20, 40 seeds): 30
- Germination ([3]; strain 23-2, 30 seeds): 19
- Non-germination ([3]; strain 23-2, 30 seeds): 11
- Germination ([3]; strain 23, 110 seeds): 61
- Non-germination ([3]; strain 23, 110 seeds): 49
- Germination ([3]; strain 28, 59 seeds): 16
- Non-germination ([3]; strain 28, 59 seeds): 43
- Germination ([3]; strain 53-3, 19 seeds): 7
- Non-germination ([3]; strain 53-3, 19 seeds): 12
- Germination ([3]; strain 77-2, 46 seeds): 29
- Non-germination ([3]; strain 77-2, 46 seeds): 17
- Germination ([3]; strain 88-4, 62 seeds): 30
- Non-germination ([3]; strain 88-4, 62 seeds): 32
- Germination ([3]; strain 93-2, 34 seeds): 15
- Non-germination ([3]; strain 93-2, 34 seeds): 19
- Germination ([3]; strain 95-2, 35 seeds): 10
- Non-germination ([3]; strain 95-2, 35 seeds): 25
- Germination ([3]; strain 174-3, 15.2 seeds): 12
- Non-germination ([3]; strain 174-3, 15.2 seeds): 3.2
- Germination ([3]; strain 175-4): 14
- Non-germination ([3]; strain 175-4, 27.3 seeds): 13.3
- Germination ([3]; strain ZH11 (CK), 40 seeds): 0
- Non-germination ([3]; strain ZH11 (CK), 40 seeds): 40

SMILES: CC(C)N1C(=O)c2ccccc2NS1(=O)=O [bentazone]
- number of low sensitive or non-phenotypic strains [4, 11]: 122 strains
- number of strains withered severely then recovered (moderately sensitive) [4, 11]: 81 strains
- number of strains with irreversible leaf wilt (highly sensitive) ([4]; 347 GAT T0 strains, 3 g/L bentazone, 7th to 14th day): 144 strains
- number of strains highly resistant to bispyribac-sodium and highly sensitive to bentazone ([4]; GAT T0 strains, 600 mg/L bispyribac-sodium then 3 g/L bentazone): 86 strains
- number of strains with individual plants slightly less sensitive, eventually died ([5]; T1 strains): 5 strains
- number of strains highly susceptible to wilt and death (highly sensitive) ([5]; bispyribac-sodium resistance T1 strains, 14th day): 6 strains
- Highly sensitive ratio ([5]; strain 4 T1, 2 plants sprayed): 1/2
- Highly sensitive(dead) ([5]; strain 4 T1, 2 plants sprayed): 1
- Low sensitivity ([5]; strain 4 T1, 2 plants sprayed): 0
- Medium sensitivity ([5]; strain 4 T1, 2 plants sprayed): 1
- No phenotype ([5]; strain 4 T1, 2 plants sprayed): 0
- Highly sensitive ratio ([5]; strain 7 T1, 15 plants sprayed): 2/15
- Highly sensitive(dead) ([5]; strain 7 T1, 15 plants sprayed): 2
- Low sensitivity ([5]; strain 7 T1, 15 plants sprayed): 13
- Medium sensitivity ([5]; strain 7 T1, 15 plants sprayed): 0
- No phenotype ([5]; strain 7 T1, 15 plants sprayed): 0
- Highly sensitive ratio [5, 12]: 8/8
- Highly sensitive(dead) [5, 12]: 8
- Low sensitivity [5, 12]: 0
- Medium sensitivity [5, 12]: 0
- No phenotype [5, 12]: 0
- Highly sensitive ratio ([5]; strain 20 T1, 3 plants sprayed): 2/3
- Highly sensitive(dead) ([5]; strain 20 T1, 3 plants sprayed): 2
- Low sensitivity ([5]; strain 20 T1, 3 plants sprayed): 0
- Medium sensitivity ([5]; strain 20 T1, 3 plants sprayed): 1
- No phenotype ([5]; strain 20 T1, 3 plants sprayed): 0
- Highly sensitive ratio [5, 13]: 11/12
- Highly sensitive(dead) [5, 13]: 11
- Low sensitivity [5, 13]: 0
- Medium sensitivity [5, 13]: 1
- No phenotype [5, 13]: 0
- Highly sensitive ratio [5, 14]: 14/14
- Highly sensitive(dead) [5, 14]: 14
- Low sensitivity [5, 14]: 0
- Medium sensitivity [5, 14]: 0
- No phenotype [5, 14]: 0
- Highly sensitive ratio ([5]; strain 28 T1, 7 plants sprayed): 7/7
- Highly sensitive(dead) ([5]; strain 28 T1, 7 plants sprayed): 7
- Low sensitivity ([5]; strain 28 T1, 7 plants sprayed): 0
- Medium sensitivity ([5]; strain 28 T1, 7 plants sprayed): 0
- No phenotype ([5]; strain 28 T1, 7 plants sprayed): 0
- Highly sensitive ratio [5, 15]: 8/8
- Highly sensitive(dead) [5, 15]: 8
- Low sensitivity [5, 15]: 0
- Medium sensitivity [5, 15]: 0
- No phenotype [5, 15]: 0
- Highly sensitive ratio [5, 16]: 2/2
- Highly sensitive(dead) [5, 16]: 2
- Low sensitivity [5, 16]: 0
- Medium sensitivity [5, 16]: 0
- No phenotype [5, 16]: 0
- Highly sensitive ratio [5, 17]: 12/13
- Highly sensitive(dead) [5, 17]: 12
- Low sensitivity [5, 17]: 0
- Medium sensitivity [5, 17]: 1
- No phenotype [5, 17]: 0
- Highly sensitive ratio [5, 18]: 8/9
- Highly sensitive(dead) [5, 18]: 8
- Low sensitivity [5, 18]: 1
- Medium sensitivity [5, 18]: 0
- No phenotype [5, 18]: 0
- Highly sensitive ratio [5, 19]: 2/2
- Highly sensitive(dead) [5, 19]: 2
- Low sensitivity [5, 19]: 0
- Medium sensitivity [5, 19]: 0
- No phenotype [5, 19]: 0
- Highly sensitive ratio [5, 20]: 4/10
- Highly sensitive(dead) [5, 20]: 4
- Low sensitivity [5, 20]: 6
- Medium sensitivity [5, 20]: 0
- No phenotype [5, 20]: 0
- Highly sensitive ratio [5, 21]: 5/7
- Highly sensitive(dead) [5, 21]: 5
- Low sensitivity [5, 21]: 0
- Medium sensitivity [5, 21]: 2
- No phenotype [5, 21]: 0
- Highly sensitive ratio [5, 22]: 4/4
- Highly sensitive(dead) [5, 22]: 4
- Low sensitivity [5, 22]: 0
- Medium sensitivity [5, 22]: 0
- No phenotype [5, 22]: 0
- Highly sensitive ratio [5, 23]: 0/4
- Highly sensitive(dead) [5, 23]: 0
- Low sensitivity [5, 23]: 0
- Medium sensitivity [5, 23]: 0
- No phenotype [5, 23]: 4
